Laboratory results as given in patent publication US8575089B2, “Composition for preventing or treating inflammation” (University-Industry Cooperation Group of Kyung Hee, priority 2009, dated 2013).
Where no end group is shown, it is not given here.

Legend:
[1] = system: CD4+ T cell isolated from peripheral blood; experiment: IL-6 and IL-10 expression (ELISA) in CD4+ T cells treated with SP; assay type: cell-based, C57b1/6 mice; details: CD4+ T cell in T-cell activation media; SP as Example 1-(1); 4.5, 10, 24 hours; FIG. 2
Method: [The procedure below names another cell line; the source says it served here with some conditions changed.] (§1) Peripheral blood was collected from C57b1/6 mice (8 weeks, sex; male, n=5, Average Weight; 20 g), diluted doubly with PBS, carefully placed on Ficoll in a tube, and then centrifuged at 2200 rpm for 20 minutes. By centrifuging, from the bottom, an erythrocyte layer, a ficoll layer, a mononuclear cell layer, and a plasma layer were obtained in order. The mononuclear cell layer and plasma layer were isolated, excluding the erythrocyte layer and ficoll layer, and then washed one time with PBS. Then, the number of cells was counted; the cells with a concentration of 1×10^5/0.2 ml were seeded onto T-cell activation media (lymphocyte activation media; RPMI, 10% FBS, 100 μM 2-mercaptoetanol, 20 μg/ml ConA); then the cells were cultured at an incubator of 37° C.; and then culture supernatant was taken at 4.5 hours, 10 hours, and 24 hours. For SP-treated group, 10 nmole/kg of SP dissolved in a physiological saline was treated to T-cell activation media. […] After 30 minutes, 100 μl of stop codon was treated to stop the reaction; the optical density was measured at 450 nm; the amounts of cytokines were converted based on a protein conversion formula by a standard sample; and then the results were shown in FIG. 1. […]

[2] = system: CD11b+ macrophage isolated from peripheral blood; experiment: IL-6 and IL-10 expression (ELISA) in CD11b+ macrophages treated with SP; assay type: cell-based, C57b1/6 mice; details: CD11b+ macrophage in macrophage activation media; SP as Example 1-(1); 4.5, 10, 24 hours; FIG. 3
Method: [The procedure below names another cell line; the source says it served here with some conditions changed.] as §1

[3] = system: regulatory T cells (CD4+, FoxP3+) and anti-inflammatory macrophage M2 (CD11b+, CD206+); experiment: Radiation-irradiating model: FACS of regulatory T cells and macrophage M2 in mesentric lymph nodes and small intestine; assay type: in vivo, C57b1/6 mice; details: mice, 8 Gy, SP i.v., 4.5 hours after irradiation
Method: 5 nmole/kg of SP dissolved in a physiological saline was injected to a tail vein of C57b1/6 mice (8 weeks, sex; male, n=4, Average weight; 20 g) one day before irradiation and immediately after irradiation. The irradiation was performed at 8 Gy radiation in a Gamma lay radiation irradiator (^137Cs, Atomic Energy of Canada, Mississauga, Canada). The mice were sacrificed at 4.5 hours and one day after irradiation, and then the blood was collected. The part of the blood was used for analyzing CBC (Complete Blood Count) and the remaining blood was used to isolate serum and then analyze cytokines
The mice were sacrificed at 4.5 hours after irradiation using the same method as Example 3; mesentric lymph nodes were taken for isolating mononuclear cells; then isolated mononuclear cells were fixed at 3.7% formalin for 1 hour; and then anti-inflammatory-related T cells and macrophages were analyzed through FACS (BD FACSCalibur™: 343098, BD Biosciences, Canada) analysis.
Specifically, the mice were sacrificed at 4.5 hours after 8 Gy radiation; the abdomens were cut to open; mesentric lymph nodes and small intestines were taken and then were cut fine; then chopped by using operating scissors; then were treated with collagenase type I (Worthington, USA) and DNase I (Sigma, USA) at 37° C. for 20 minutes; washed, respectively; mononuclear cells were isolated; and then fixed in 3.7% formalin for 1 hour. The mesentric lymph nodes mononuclear cells fixed in formalin were double-stained with CD4 (130-091-608, Miltenyi Biotec, Germany) and FoxP3 (130-093-013, Miltenyi Biotec, Germany) antibody, and then regulatory T cells were analyzed through FACS analysis. In addition, an anti-inflammatory macrophage M2 analysis was performed through FACS analysis after double staining with CD11b (130-081-201, Miltenyi Biotec, Germany) and CD206 (ab64693, abcam, UK) antibody. Since T cells or macrophages in the small intestine mononuclear cells fixed in a formalin accounted for less than 1% of the whole cells, FACS analysis was performed after isolating CD3 (130-092-962, Miltenyi Biotec, Germany)+ cell and CD11b+ cell with MACS isolating method as disclosed in the previous Example 1-(2), respectively. Regulatory T cells were analyzed by double-staining the cells isolated by CD3 with CD4 and FoxP3 antibody and anti-inflammatory macrophage M2 analysis was performed by double-staining the cells isolated by CD11b with CD11b and CD206 antibody.

Substance: Substance-P (RPKPQQFFGLM; not fully specified; ends and bridges not checked; UniProt P20366 58-68, looked up)
- expression level of IL-6 in culture supernatant [1]: no difference
- expression of IL-10 in culture supernatant [1]: increased
- expression level of IL-6 in culture supernatant [2]: no difference
- expression of IL-10 in culture supernatant [2]: increased
- anti-inflammatory macrophage M2 (CD11b+, CD206+) ([3]; mesentric lymph nodes, FIG. 10): increased
- regulatory T cells (CD4+, FoxP3+) ([3]; mesentric lymph nodes, FIG. 10): increased
- anti-inflammatory macrophage M2 (CD11b+, CD206+) ([3]; small intestines, FIG. 11): increased
- regulatory T cells (CD4+, FoxP3+) ([3]; small intestines, FIG. 11): increased
